Assay results: patent publication US11992011B2, “Compounds for controlling plant pathogens” (VIB VZW, priority 2017, dated 2024)

What was measured:
[1] = system: Fusarium proliferatum (isolate Fpr18); assay: Onion seedling emergence with PA seed coating, Fusarium proliferatum (Example 12); type: in vivo; conditions: onion seeds with 300 μM PA coating vs mock coating
Description: Seed coatings were applied by dipping seeds in a coating solution containing 20 g/I high viscosity carboxymethylcellulose (Sigma-Aldrich, Saint Louis, USA) in distilled water as well as 300 μM of the target compound. Seeds were then dried overnight at room temperature.
Onion seeds were coated with a 300 μM PA solution as outlined in the chemical treatments section. F. oxysporum (isolate Foc26), F. solani (isolate Fso18) and F. proliferatum (isolate Fpr18) were originally extracted from Vietnamese onion fields. Inoculum was obtained as described in the fungal culture section. The inoculum was diluted to a concentration of 1.0×10^7 spores per ml with sterile PBS buffer. The coated seeds were then soaked in the spore solution for one hour. To avoid excessive PA leaching from the PA coating, 100 μM of PA was added to the spore solution.
After soaking in the PA solution, seeds were left to dry for thirty minutes. Twenty seeds were then sowed per pot in potting soil; three pots were used per treatment and per fungal isolate (for a total of 60 seeds per treatment-isolate combination). The pots were covered in cling film and left on a window sill at room temperature. After eight and ten days, the number of germinated seedlings per pot was counted.
Germination experiments were analyzed by fitting a three-parameter log-logistic model as implemented in the R drc package.

[2] = system: wheat; assay: Phytotoxicity of foliar spray in uninfected wheat (Example 1); type: in vivo, Triticum aestivum; conditions: 500 μM foliar spray, 8 plants per treatment
Description: For Examples 1, 5 and 10, seeds of the winter wheat cultivar Sahara (Aveve Agrarisch, Landen, Belgium) were used. Seeds were washed in a 10% ethanol solution to remove any residual traces of fungicide and then germinated on wet paper at room temperature for four days; seeds were transferred to SAP tubes and placed in a growth chamber (25° C., 16 hours per day of light). Plants were watered with 8 ml of half-strength Hoagland solution every two days for the first ten days and with 8 ml of full strength Hoagland solution every two days afterwards.
(§1) Unless otherwise mentioned, all chemicals for nematode experiments were applied as a foliar spray consisting of the target compound at a concentration of 300 μM together with 0.1% (v/v) Tween 20 surfactant (Calbiochem) in distilled water. Again unless otherwise mentioned, all treatments for the nematode experiments were carried out three times: one and eight days before pathogen inoculation and seven days after pathogen inoculation. In all cases, plants were sprayed until run-off with an atomizer.
(§2) Short-term phytotoxicity experiments (Example 1) were analyzed using non-parametric methods. For each variable, overall significance was determined using the Kruskal-Wallis test (Kruskal and Wallis, 1952), followed by a posthoc Conover-Iman test (Conover and Iman, 1981) with Hommel multiplicity correction (Hommel, 1988) if the Kruskal-Wallis test was significant. When only two groups were present, the Wilcoxon-Mann-Whitney test was used (Mann and Whitney, 1947).
(§3) To test whether C4H inhibitors induce phytotoxic effects in crops, uninfected tomato, wheat and carrot were treated with piperonylic acid (PA), 4-iodobenzoic acid (4-IBA) and piperic acid (PIA) at a concentration of 500 μM through foliar application. At harvest, leaf area (or shoot length in the case of wheat) and primary root length were recorded. The BBCH developmental stage (Lancashire et al., 1991), a measure of developmental retardation, was used to test for effects on development. Finally, the presence of visible signs of phytotoxicity such as chlorosis, discoloration or necrosis was recorded.

[3] = system: OsAOS2; assay: qRT-PCR in rice roots, OsAOS2 (Example 20); type: in vivo, Oryza sativa; conditions: rice cv. Bomba root tissue; same samples as Example 19
Description: After quality control, qPCR was carried out.
To test whether other defense hormones might be involved, genes responsive to jasmonic acid (the biosynthesis gene OsAOS2) and auxin (the auxin conjugating enzyme OsGH3.1) were investigated. Moreover, the callose-degrading enzyme OsGNS5, downregulation of which is associated with basal defense, was also investigated. The qRT-PCR analysis was performed on the same samples used in the previous Example.

[4] = system: tomato; assay: Phytotoxicity of foliar spray in uninfected tomato (Example 1); type: in vivo, Solanum lycopersicum; conditions: 500 μM foliar spray, 8 plants per treatment
Description: Tomato seeds, cv. Moneymaker (Vreeken's Zaden, Dordrecht, the Netherlands) were sown on autoclaved potting soil coveed with polyethylene film and placed at 24° C. for eight days. Seedlings were then transferred to individual SAP-filled pots and placed in a growth chamber at 24° C. Plants were watered three times per week with 25 ml of quarter-strength Hoagland solution for the first two weeks and half-strength thereafter.
as §1, §2, §3

[5] = system: Pseudomonas syringae DC3000; assay: Pseudomonas syringae toxicity experiment in liquid culture (Example 21); type: cell-based; conditions: 100 μM, twenty-four hours of continuous exposure
Description: A glycerol stock of P. syringae pv. DC3000 kept at−80° C. was spotted on petri dishes containing King's B agar amended with 75 μg/ml rifampicine (Duchefa Biochemie, Haarlem, the Netherlands). The plates were incubated in the dark at 28° C. for one week. At this time point, glass test tubes containing 5 ml of liquid King's B each (without rifampicin) were inoculated with cells from the plates and placed on an orbital shaker at 200 rpm for 24 hours at 28° C. 100 μl of this liquid inoculum was transferred to fresh glass test tubes containing 5 ml of liquid King's B each (without rifampicin) amended either with 100 μM of PA or a corresponding control, which were placed on an orbital shaker at 200 rpm for 24 hours at 28° C. At this time point, the cells were diluted ten-fold with liquid King's B medium and the OD600 of the resulting suspension was determined using a spectrophotometer (BioRad SmartSpec Plus), with sterile King's B as a blanc.
Prior to inoculation, the effect of piperonylic acid on Pseudomonas syringae DC3000 itself was also verified by growing the bacteria on liquid culture amended with piperonylic acid or a corresponding control and measuring the OD600 (as described in the materials and methods section).

## O=C(O)c1ccc2c(c1)OCO2 [PA, Piperonylic acid]
[1]
  improvement of seedling emergence: +79%
[2]; mean ± standard deviation
  Root length: 15.75 ± 2.64 cm
  Shoot length: 31.75 ± 2.84 cm
[2]; median ± interquartile range
  BBCH stage: 13 ± 0
[3]
  Fold change vs. control, OsAOS2 expression: 0.71
[4]; mean ± standard deviation
  Leaf Area: 11.83 ± 1.70 cm^2
  Root length: 7.95 ± 1.83 cm
[4]; median ± interquartile range
  BBCH stage: 102 ± 1.0
[5]
  effect on bacterial growth: no effect on bacterial growth
[5]; ten-fold diluted culture, printed 0.737 vs. 0.757
  OD600: 0.737
